Test results: patent publication US7354938B2, “Pyrazole compounds and uses related thereto” (Amgen Inc., priority 2004, dated 2008)

Biological target: T1, human HSD1 (recombinant HSD1) (Homo sapiens, UniProt P28845)
T1 construct: made in house
Test: In vitro HSD1 activity inhibitory action (SPA, conversion of cortisone to cortisol)
Assay type: biochemical
Details: recombinant human HSD1 expressed in baculo-virus system, 16 nM 3H cortisone, 500 μM NADPH, room temperature, 90 min
Protocol: In Vitro HSD1 (Hydroxysteroid Dehydrogenase 1) Activity Inhibitory Action
The HSD1 inhibitory activity was examined by quantitative determination by an SPA (scintillation proximity assay) system of the suppressive action on the conversion from cortisone to cortisol using human HSD1 (hereinafter recombinant HSD1) expressed using a baculo-virus system as an enzyme source. For the reaction, a reagent was added to a 96 well plate (96 well Opti-plates™-96 (Packard)) to the following final concentration and a volume of 100 μl was reacted at room temperature for 90 min. The reaction solution used was 0.1 μg/mL recombinant HSD1,500 μM NADPH, 16 nM ^3H cortisone (Amersham Biosciences, 1.78 Tbq/mol) dissolved in 0.1% BSA (Sigma)-containing PBS and the test drug was 2 μl of a compound solution (dissolved in DMSO). After 90 min, the reaction was stopped by adding PBS (40 μl, containing 0.1% BSA (Sigma)) containing 0.08 μg of anti-cortisol mouse monoclonal antibody (East Coast Biologics), 365 μg SPA PVT mouse antibody-binding beads (Amersham Biosciences) and 175 μM carbenoxolone (Sigma) to the reaction solution. After the completion of the reaction, the plate was incubated overnight at room temperature and the radioactivity was measured by Topcount (Packard). For control, the value (0% inhibition) of the well containing 2 μl of DMSO instead of the test drug was used, and for positive control, the value (100% inhibition) of the well containing carbenoxolone instead of the test drug at the final concentration of 50 μM was used. The inhibition (%) of the test drug was calculated by ((value of control−value of test drug)/(value of control−value of positive control))×100 (%). The IC50 value was analyzed using a computer-based curve fitting soft.

T1 sequence (P28845 whole entry): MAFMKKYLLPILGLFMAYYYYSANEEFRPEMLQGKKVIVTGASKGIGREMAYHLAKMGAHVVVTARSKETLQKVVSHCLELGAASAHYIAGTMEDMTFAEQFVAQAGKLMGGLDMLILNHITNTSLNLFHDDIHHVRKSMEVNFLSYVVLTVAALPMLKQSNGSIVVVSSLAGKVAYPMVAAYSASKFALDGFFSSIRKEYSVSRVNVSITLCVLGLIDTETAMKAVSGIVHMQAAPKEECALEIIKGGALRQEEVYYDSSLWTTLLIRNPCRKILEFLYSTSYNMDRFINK

First: Cc1c(-c2ccc(Cl)cc2Cl)n[nH]c1C1(c2ccccc2)CC1 [Ex. 1-1, 3-(2,4-dichlorophenyl)-4-methyl-5-((1-phenylcyclopropane)-1-yl)-pyrazole]
Second: CCOC(=O)c1c(-c2ccc(Cl)cc2Cl)n[nH]c1C1(c2ccccc2)CC1 [Ex. 1-4]
The IC50 of the first is lower: < 10 nM for the first, 10 to 1000 nM for the second. The first is the more potent here.

First: Clc1ccc(-c2cc(CCc3ccccc3Cl)n[nH]2)c(Cl)c1 [Ex. 1-2]
Second: Cc1c(CCc2ccccc2Cl)n[nH]c1-c1ccc(Cl)cc1Cl [Ex. 1-3]
The IC50 of the first is higher: 10 to 1000 nM for the first, < 10 nM for the second.

`Clc1ccc(-c2cc(C3(c4ccccc4)CC3)[nH]n2)c(Cl)c1` [Ex. 1-5] and `Cc1c(-c2ccc(N3CCOC3=O)cc2Cl)n[nH]c1C1(c2ccccc2)CC1` [Ex. 1-14] fall in the same range of IC50: 10 to 1000 nM for the first, 10 to 1000 nM for the second.

`OCc1c(-c2ccc(Cl)cc2Cl)n[nH]c1Cc1ccc(F)cc1` [Ex. 1-8] and `Cc1c(-c2ccc(Cl)cc2Cl)n[nH]c1Cc1ccc(F)cc1` [Ex. 1-9] fall in the same range of IC50: 10 to 1000 nM for the first, 10 to 1000 nM for the second.

First: Cc1c(C2CCN(c3c(Cl)cncc3Cl)CC2)n[nH]c1C1(c2ccccc2)CC1 [Ex. 1-10]
Second: Cc1c(C2CCN(c3ncccc3Cl)CC2)n[nH]c1C1(c2ccccc2)CC1 [Ex. 1-11]
The IC50 of the first is higher: 10 to 1000 nM for the first, < 10 nM for the second. The second is the more potent here.

`CC(C)c1c(-c2ccccc2)n[nH]c1C1(c2ccc(F)cc2)CC1` [Ex. 1-12] and `Cc1c(-c2ccccc2)n[nH]c1C1(c2ccc(F)cc2)CC1` [Ex. 1-13] cannot be ordered by IC50: < 10 nM for the first, < 10 nM for the second.

`Cc1c(-c2ccccn2)n[nH]c1C1(c2ccc(F)cc2)CC1` [Ex. 1-15] and `Cc1c(C2(c3ccc(F)cc3)CC2)n[nH]c1C1(c2ccc(F)cc2)CC1` [Ex. 1-16] cannot be ordered by IC50: < 10 nM for the first, < 10 nM for the second.
